Source: patent US20240336934A1, “CRISPR/CAS9-BASED COMPOSITIONS AND METHODS FOR TREATING RETINAL DEGENERATIONS” (The Johns Hopkins University, priority 2016, published 2024)

Tests used:
Dlk [1] = assay: scAAV/lentivirus transduction of RGCs from Cas9 mouse; BglII assay for Dlk gene editing; assay type: cell-based; conditions: gRNA delivered by ssAAV, Cas9 present from the mouse
From the text: Cells were harvested from the Cas9 mouse, and transduced in vitro. […] The construct was packaged to produce a self-complementary AAV (scAAV). […] Cells were harvested from the Cas9 mouse, and transduced in vitro. […] The gRNA (mm079) was delivered by ssAAV and Cas9 was present from the mouse
Titration of scAAV virus transducing either WT RGC or RGCs derived from the Cas9 mouse. […] In this assay, we are assaying for cutting by loss of a restriction enzyme site. […] A construct was generated using the H1 promoter to express a gRNA (shown in black) and mCherry simultaneously. […] The construct was packaged to produce a self-complementary AAV (scAAV).
To test this system, an AAV construct was generated that used the H1 promoter to express an mCherry-histone 2B fusion in the Pol II direction and the Dlk #4 gRNA (5′[sequence] 3′ (SEQ ID NO: 163)), which conveniently targets a BglII site (FIGS. 19G and 1H), in the Pol III direction (Dlk gRNA:H1:H2B-mCherry). […]
For restriction analysis, genomic DNA was extracted by resuspending cells in QuickExtract solution (Epicentre, Madison, WI), incubating at 65° C. for 20 min, and then at 98° C. for 20 min. The extract solution was used directly or cleaned using DNA Clean and Concentrator (Zymo Research, Irvine, CA), and quantitated by NanoDrop (Thermo 30 Fisher Scientific).

primary RGCs [2] = assay: Primary RGC survival (CellTiter-Glo) after immunopanning / colchicine; assay type: cell-based, mouse; conditions: combined knockdown of both DLK and LZK
From the text: For this screen, a high-throughput method was developed for knocking down gene expression in primary RGCs, from male and female C57Bl/6 mice (7), with small interfering RNA oligonucleotides (siRNAs) and coupled it with a quantitative assay of RGC survival (CellTiter-Glo, Promega) (5).
In order to identify these other targets, the kinome screen was modified to include Dlk siRNA in every well and sensitize it to those library siRNAs that synergized with DLK knockdown to further increase RGC survival (FIG. 19A). The other modification was to allow 48 hours for extant protein turnover, before exacerbating the immunopanning injury with colchicine, a microtubule destabilizer that has been used to model axon injury in vitro and in vivo (15, 16).

hESC-derived RGCs = assay: Survival of hESC-derived RGCs after colchicine challenge; assay type: cell-based, human; conditions: two days after colchicine (1 μM); tozasertib (1 μM), Genentech inhibitor 123 (0.1 μM)
Method: FIG. 69A depicts survival (±SD) of hESC-derived RGCs two days after a challenge with vehicle or colchicine (1 μM) in the presence of the DLK/LZK inhibitors tozasertib (1 μM), Genentech inhibitor 123 (0.1 μM) or a vehicle control. FIG. 69B depicts survival (±SD) of hESC-derived RGCs two days after a challenge with colchicine (1 μM) in the presence of increasing doses of sunitinib.

primary RGCs [3] = conditions: compared with DLK knockdown or knockout alone; cited from earlier work
RGCs = conditions: rat optic nerve transection and glaucoma models; cited from earlier work
DLK [4] = target: T1, DLK (Homo sapiens, UniProt Q12852); conditions: published kinase inhibitor profiling data; cited from earlier work
T1 sequence (Q12852 1-859): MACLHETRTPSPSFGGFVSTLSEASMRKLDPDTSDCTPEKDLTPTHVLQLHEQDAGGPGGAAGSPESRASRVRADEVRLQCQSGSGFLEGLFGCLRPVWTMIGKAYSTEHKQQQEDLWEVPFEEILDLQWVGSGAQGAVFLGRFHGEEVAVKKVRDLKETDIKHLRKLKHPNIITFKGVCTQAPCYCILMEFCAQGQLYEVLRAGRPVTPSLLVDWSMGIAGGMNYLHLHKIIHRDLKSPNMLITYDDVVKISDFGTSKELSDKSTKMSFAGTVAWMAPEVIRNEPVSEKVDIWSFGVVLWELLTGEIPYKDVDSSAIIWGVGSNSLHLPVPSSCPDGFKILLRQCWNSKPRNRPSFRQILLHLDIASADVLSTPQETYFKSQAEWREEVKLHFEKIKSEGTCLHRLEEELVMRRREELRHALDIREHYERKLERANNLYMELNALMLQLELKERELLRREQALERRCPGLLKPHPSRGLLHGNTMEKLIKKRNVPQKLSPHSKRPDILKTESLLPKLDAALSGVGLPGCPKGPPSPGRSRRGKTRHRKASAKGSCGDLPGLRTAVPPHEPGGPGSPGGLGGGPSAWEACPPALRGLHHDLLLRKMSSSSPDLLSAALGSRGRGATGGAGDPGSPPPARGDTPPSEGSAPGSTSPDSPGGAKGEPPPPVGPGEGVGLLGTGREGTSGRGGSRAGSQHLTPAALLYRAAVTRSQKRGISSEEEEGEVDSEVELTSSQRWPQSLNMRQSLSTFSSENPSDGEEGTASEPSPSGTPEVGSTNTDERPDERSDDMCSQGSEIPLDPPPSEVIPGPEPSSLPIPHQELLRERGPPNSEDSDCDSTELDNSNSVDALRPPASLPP

LZK = target: T2, LZK (Homo sapiens, UniProt O43283); conditions: published kinase inhibitor profiling data; cited from earlier work
T2 sequence (O43283 1-966): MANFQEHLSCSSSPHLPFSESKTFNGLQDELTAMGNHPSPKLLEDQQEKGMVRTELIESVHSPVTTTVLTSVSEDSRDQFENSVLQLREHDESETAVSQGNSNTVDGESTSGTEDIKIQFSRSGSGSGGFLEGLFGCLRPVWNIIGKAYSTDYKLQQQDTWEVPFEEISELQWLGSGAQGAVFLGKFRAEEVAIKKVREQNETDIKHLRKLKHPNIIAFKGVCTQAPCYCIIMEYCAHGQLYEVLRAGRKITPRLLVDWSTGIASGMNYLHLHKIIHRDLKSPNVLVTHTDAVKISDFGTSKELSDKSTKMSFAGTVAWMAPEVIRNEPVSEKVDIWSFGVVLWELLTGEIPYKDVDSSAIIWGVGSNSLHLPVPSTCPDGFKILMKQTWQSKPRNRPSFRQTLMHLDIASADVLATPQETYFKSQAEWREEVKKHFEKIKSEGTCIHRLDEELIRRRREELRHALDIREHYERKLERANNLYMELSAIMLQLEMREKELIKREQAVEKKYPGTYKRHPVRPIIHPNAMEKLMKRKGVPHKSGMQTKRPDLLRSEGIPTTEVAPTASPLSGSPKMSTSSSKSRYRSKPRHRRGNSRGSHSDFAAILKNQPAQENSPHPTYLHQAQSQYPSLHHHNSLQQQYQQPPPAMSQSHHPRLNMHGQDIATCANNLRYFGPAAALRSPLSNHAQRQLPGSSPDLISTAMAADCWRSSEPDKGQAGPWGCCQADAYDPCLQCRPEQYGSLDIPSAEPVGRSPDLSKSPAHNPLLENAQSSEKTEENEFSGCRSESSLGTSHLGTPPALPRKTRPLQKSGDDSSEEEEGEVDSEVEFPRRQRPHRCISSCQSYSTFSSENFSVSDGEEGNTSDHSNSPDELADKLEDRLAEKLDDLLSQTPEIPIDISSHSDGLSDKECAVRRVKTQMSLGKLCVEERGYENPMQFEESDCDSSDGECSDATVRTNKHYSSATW

Row | Compound | targeting as detected by a BglII assay (Dlk [1]) | RGC survival on addition of drug to combined knockdown of DLK and LZK (primary RGCs [2]) | survival of hESC-derived RGCs (hESC-derived RGCs) | RGC survival in vitro (primary RGCs [3]) | protection of RGCs (RGCs) | inhibitor of DLK (DLK [4]) | inhibition of LZK (LZK)
1 | GAAGAAGGTTCGAGATCTCAAGG (chemistry not given here) [mm079] | ~100% | – | – | – | – | – | –
2 | Cc1cc(Nc2cc(N3CCN(C)CC3)nc(Sc3ccc(NC(=O)C4CC4)cc3)n2)[nH]n1 [tozasertib] | – | had no effect | promotes the survival of human ESC-derived RGCs | consistently improved RGC survival in vitro more than DLK knockdown or knockout alone | protected RGCs in both the rat optic nerve transection and glaucoma models | identified as an inhibitor of DLK | does inhibit LZK
